For assay [1], the species on record is Homo sapiens. As to the kind of experiment: Selectivity index, ratio of IC50 for human OX2R expressed in CHO cells to IC50 for human OX1R expressed in CHO cells. The assay is classed as cell-based.
A further assay deals with T1, Orexin receptor type 2 (Homo sapiens, UniProt O43614).
T1 sequence (O43614 whole entry): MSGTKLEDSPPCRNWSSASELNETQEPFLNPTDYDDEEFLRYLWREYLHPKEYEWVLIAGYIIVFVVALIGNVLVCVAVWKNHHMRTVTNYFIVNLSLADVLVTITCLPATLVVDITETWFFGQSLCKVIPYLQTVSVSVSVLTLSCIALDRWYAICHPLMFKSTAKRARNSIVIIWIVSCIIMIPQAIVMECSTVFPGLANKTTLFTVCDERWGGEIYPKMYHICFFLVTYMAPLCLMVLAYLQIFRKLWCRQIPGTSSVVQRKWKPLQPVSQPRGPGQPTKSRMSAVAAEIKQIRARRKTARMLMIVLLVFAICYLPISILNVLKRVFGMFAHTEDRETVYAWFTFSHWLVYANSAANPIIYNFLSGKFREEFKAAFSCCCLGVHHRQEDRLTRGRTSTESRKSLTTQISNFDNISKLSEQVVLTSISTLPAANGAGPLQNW
As to the kind of experiment: Antagonist activity at human OX2R expressed in CHO cells assessed as reduction in [Ala6,12]orexin-A-induced intracellular Ca2+ mobilization incubated for 30 mins by Fluo-4AM dye based fluorescence assay. The assay is classed as functional, cell-based.

Assay [2] concerns the target T2, Orexin/Hypocretin receptor type 1 (Homo sapiens, UniProt O43613).
T2 sequence (O43613 whole entry): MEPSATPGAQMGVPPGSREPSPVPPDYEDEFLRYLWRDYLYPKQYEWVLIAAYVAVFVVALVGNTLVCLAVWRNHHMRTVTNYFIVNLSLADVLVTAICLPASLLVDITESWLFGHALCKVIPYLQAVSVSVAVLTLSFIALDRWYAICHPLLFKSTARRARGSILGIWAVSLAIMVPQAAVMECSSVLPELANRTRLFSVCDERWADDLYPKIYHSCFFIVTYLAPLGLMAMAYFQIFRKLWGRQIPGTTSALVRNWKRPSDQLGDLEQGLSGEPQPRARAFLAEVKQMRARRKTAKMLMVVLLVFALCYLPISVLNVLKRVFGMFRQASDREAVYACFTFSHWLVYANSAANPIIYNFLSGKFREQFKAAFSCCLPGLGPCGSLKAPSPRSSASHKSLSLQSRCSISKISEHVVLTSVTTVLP
The assay can be described thus: Antagonist activity at human OX1R expressed in CHO cells assessed as reduction in [Ala6,12]orexin-A-induced intracellular Ca2+ mobilization incubated for 30 mins by Fluo-4AM dye based fluorescence assay. The assay is classed as functional, cell-based. On the technique in general: Calcium assays in cells follow changes in intracellular calcium, usually with a dye or a luminescent sensor.

The species named for assay [3] is Homo sapiens. The assay can be described thus: Selectivity index, ratio of IC50 for OX2R expressed in CHO cells to IC50 for human OX1R expressed in CHO cells. The assay is classed as cell-based.

A word on the IC50: it is the point on the concentration scale where inhibition reaches its midpoint.

Take `CCN(C(=O)c1cc(F)ccc1-n1nccn1)[C@@H](C)Cn1nnc(-c2ccc(F)cn2)n1`: in the assay filed under Homo sapiens [1], the Ratio IC50 was found to be 50. Moreover, the IC50 on Orexin receptor type 2 was found to be 471 nM; in assay [2] it was 9.45 nM.
With `CCN(C(=O)c1cc(C)ccc1-n1nccn1)[C@@H](C)Cn1cc(-c2ccc(F)cn2)nn1`, the Ratio IC50 in the assay listed under Homo sapiens [1] came out at 12. The concentration for half-maximal inhibition (IC50) on Orexin receptor type 2 came out at 22.8 nM; in assay [2], 1.93 nM.
As for `CCN(C(=O)c1cc(C)ccc1-n1nccn1)[C@@H](C)Cn1nnc(-c2ccc(F)cn2)n1`, the Ratio IC50 in the assay filed under Homo sapiens [1] came out at 16. The IC50 was 17.9 nM on Orexin receptor type 2 and 1.1 nM in assay [2].
On to `Cc1ccc(-n2nccn2)c(C(=O)N(C)[C@@H](C)Cn2cc(-c3ccc(F)cn3)cn2)c1`, for which the Ratio IC50 in the assay filed under Homo sapiens [1] worked out at 4.8. In addition, the concentration for half-maximal inhibition (IC50) amounted to 21.2 nM at Orexin receptor type 2 and 4.39 nM in assay [2].
As to `CCN(C(=O)c1cc(C)ccc1-n1nccn1)[C@@H](C)Cn1cc(-c2ccc(F)cn2)cn1`, in the assay listed under Homo sapiens [1], the Ratio IC50 came to 7.7. For the same molecule, the IC50 was 5.87 nM at Orexin receptor type 2 and 0.767 nM in assay [2].
Taken in the same sequence, the figures for `CCN(C(=O)c1cc(F)ccc1-c1ncccn1)[C@@H](C)Cc1noc(-c2ccc(F)cc2)n1` were 51, 80.1 nM and 1.58 nM.
On to `CCN(C(=O)c1cc(C)ccc1-n1nccn1)[C@@H](C)Cn1nnc(-c2ccc(F)cc2)n1`, for which the Ratio IC50 in the assay listed under Homo sapiens [1] worked out at 3.1. The half-maximal inhibitory concentration (IC50) worked out at 2.57 nM at Orexin receptor type 2 and 0.82 nM in assay [2].
As to `CCN(C(=O)c1cc(F)ccc1-n1nccn1)[C@@H](C)Cc1noc(-c2ccc(F)cc2)n1`, in the assay listed under Homo sapiens [1], the Ratio IC50 was found to be 19. The IC50 at Orexin receptor type 2 worked out at 23.6 nM; in assay [2], 1.26 nM.
The corresponding values for `CCN(CCn1ccc(-c2ccc(F)cn2)n1)C(=O)c1cc(C)ccc1-n1nccn1` are 0.87, 2.81 nM and 3.22 nM.
On to `CCN(C(=O)c1cc(C)ccc1-c1ncccn1)[C@@H](C)Cc1noc(-c2ccc(F)cc2)n1`, for which the Ratio IC50 in the assay listed under Homo sapiens [1] worked out at 6.3. Further, the IC50 at Orexin receptor type 2 was 8.85 nM.
As for `CC[C@@H](Cn1ccc(-c2ccc(F)cn2)n1)N(C)C(=O)c1cc(C)ccc1-n1nccn1`, in the assay listed under Homo sapiens [1], the Ratio IC50 came to 6.6. Besides, the IC50 on Orexin receptor type 2 came out at 29 nM; in assay [2], 4.39 nM.
For the molecule `Cc1ccc(-n2nccn2)c(C(=O)N[C@@H](C)Cn2ccc(-c3ccc(F)cn3)n2)c1`, the Ratio IC50 in the assay filed under Homo sapiens [1] came to 5.8. Moreover, the IC50 is 58.4 nM at Orexin receptor type 2 and 10.1 nM in assay [2].
The corresponding values for `Cc1ccc(-n2nccn2)c(C(=O)N(C)[C@@H](C)Cn2ccc(-c3ccc(F)cn3)n2)c1` are 3, 5.68 nM and 1.9 nM.
On to `Cc1ccc(-n2nccn2)c(C(=O)N(C)CCn2ccc(-c3ccc(F)cn3)n2)c1`, for which the Ratio IC50 in the assay filed under Homo sapiens [1] amounted to 2.1. Moreover, the IC50 on Orexin receptor type 2 turned out to be 11.9 nM.
As for `Cc1ccc(-n2nccn2)c(C(=O)NCCn2cc(-c3ccc(F)cn3)cn2)c1`, the half-inhibitory concentration (IC50) in assay [2] worked out at 908 nM.
Consider `Cc1ccc(-n2nccn2)c(C(=O)N[C@@H](C)Cn2cc(-c3ccc(F)cn3)cn2)c1`, for which the Ratio IC50 in the assay filed under Homo sapiens [1] turned out to be 3.4. Besides, the half-maximal inhibitory concentration (IC50) at Orexin receptor type 2 is 840 nM; in assay [2], 245 nM.
Taken in the same sequence, the figures for `CCN(C(=O)c1cc(C)ccc1-c1ncccn1)[C@@H](C)Cn1nnc(-c2ccc(F)cc2)n1` were 20, 36 nM and 1.81 nM.
With `CCN(C(=O)c1cc(C)ccc1-c1ncccn1)[C@@H](C)Cc1noc(-c2ccc(F)cn2)n1`, in the assay listed under Homo sapiens [1], the Ratio IC50 was 13. Moreover, the concentration for half-maximal inhibition (IC50) worked out at 43.2 nM on Orexin receptor type 2 and 3.24 nM in assay [2].
Taken in the same sequence, the figures for `CCN(C(=O)c1ccccc1-n1nccn1)[C@@H](C)Cc1noc(-c2ccc(F)cc2)n1` were 9.3, 11.6 nM and 1.25 nM.
For `Cc1ccc(-n2nccn2)c(C(=O)NCCn2ccc(-c3ccc(F)cn3)n2)c1`, the Ratio IC50 in the assay listed under Homo sapiens [1] is 1.7. In addition, the results for the IC50 (at Orexin receptor type 2; in assay [2]) were 198 nM and 119 nM, respectively.
As for `Cc1nc2ccc(NC(=O)Nc3ccnc4cccnc34)cc2o1`, the Ratio IC50 in the assay listed under Homo sapiens [3] is 50.
Consider `CCN(C(=O)c1cc(F)ccc1-n1nccn1)[C@@H](C)Cn1nnc(-c2ccc(F)cc2)n1`, for which, in the assay filed under Homo sapiens [1], the Ratio IC50 worked out at 45. For the same molecule, the figures for the IC50 (at Orexin receptor type 2; in assay [2]) were 139 nM and 3.06 nM, respectively.
On to `CCN(C(=O)c1nc(C)ccc1-c1ncccn1)[C@@H](C)Cc1noc(-c2ccc(F)cc2)n1`, for which the Ratio IC50 in the assay listed under Homo sapiens [1] worked out at 71. Also, the IC50 on Orexin receptor type 2 is 254 nM; in assay [2], 3.58 nM.
Taken in the same sequence, the figures for `CCN(C(=O)c1cc(C)ccc1-n1nccn1)[C@H](C)Cn1ccc(-c2ccc(F)cn2)n1` were 2.9, 250 nM and 86.6 nM.
For the molecule `CCN(C(=O)c1ccccc1-n1nccn1)[C@@H](C)Cn1nnc(-c2ccc(F)cc2)n1`, the Ratio IC50 in the assay filed under Homo sapiens [1] stood at 25. The IC50 at Orexin receptor type 2 is 61 nM; in assay [2], 2.45 nM.
Taken in the same sequence, the figures for `CCN(C(=O)c1cc(C)ccc1-c1ncccn1)[C@@H](C)Cn1nnc(-c2ccc(F)cn2)n1` were 12, 129 nM and 10.6 nM.
Turning to `CCN(C(=O)c1nc(C)ccc1-n1nccn1)[C@@H](C)Cc1noc(-c2ccc(F)cc2)n1`, the Ratio IC50 in the assay filed under Homo sapiens [1] was 22. For the same molecule, the figures for the IC50 (at Orexin receptor type 2; in assay [2]) were 40.5 nM and 1.82 nM, respectively.
Turning to `CCN(C(=O)c1cc(F)ccc1-n1nccn1)[C@@H](C)Cc1noc(-c2ccc(F)cn2)n1`, in the assay filed under Homo sapiens [1], the Ratio IC50 was 60. The half-maximal inhibitory concentration (IC50) stood at 887 nM at Orexin receptor type 2 and 14.7 nM in assay [2].
Turning to `CCN(C(=O)c1cc(C)ccc1-n1nccn1)[C@@H](C)Cc1noc(-c2ccc(F)cn2)n1`, the Ratio IC50 in the assay listed under Homo sapiens [1] came to 9. In addition, the figures for the IC50 (on Orexin receptor type 2; in assay [2]) were 11.3 nM and 1.26 nM, respectively.
As for `CCN(C(=O)c1nc(C)ccc1-n1nccn1)[C@@H](C)Cn1nnc(-c2ccc(F)cc2)n1`, the Ratio IC50 in the assay listed under Homo sapiens [1] was determined as 65. The IC50 is 119 nM on Orexin receptor type 2 and 1.84 nM in assay [2].
The corresponding values for `CCN(CCn1cc(-c2ccc(F)cn2)cn1)C(=O)c1cc(C)ccc1-n1nccn1` are 1.6, 14.2 nM and 9.06 nM.
Taken in the same sequence, the figures for `CCN(C(=O)c1cc(C)ccc1-n1nccn1)[C@@H](C)Cc1noc(-c2ccc(F)cc2)n1` were 2.6, 2.73 nM and 1.07 nM.
The corresponding values for `Cc1ccc(-n2nccn2)c(C(=O)N(C)[C@H](Cn2ccc(-c3ccc(F)cn3)n2)C(C)C)c1` are 16, 952 nM and 61.5 nM.
As for `CCN(C(=O)c1cc(C)ccc1-n1nccn1)[C@@H](C)Cn1ccc(-c2ccc(F)cn2)n1`, the Ratio IC50 in the assay listed under Homo sapiens [1] came out at 1. Moreover, the IC50 at Orexin receptor type 2 stood at 1.61 nM; in assay [2], 1.62 nM.
In the case of `Cc1ccc(-n2nccn2)c(C(=O)N(C)CCn2cc(-c3ccc(F)cn3)cn2)c1`, in the assay listed under Homo sapiens [1], the Ratio IC50 was 0.92. Besides, the IC50 on Orexin receptor type 2 amounted to 51.7 nM; in assay [2] it was 56.1 nM.
